Reference: the NIST ThermoML archive (doi:10.1016/j.fluid.2007.08.008)
± gives the expanded uncertainty stated by the source.

Tests used:
[1] = refractive index (Na D-line) (dimensionless); details: 298.15 K; 101.33 kPa; Liquid; Standard Abbe refractometry
[2] = 298.15 K; 101.33 kPa; Liquid; Vibrating tube method

**Q.** With `OCCO` [1,2-ethanediol] as the compound, how does the refractive index [1] read?
**A.** 1.4306 ± 0.004

**Q.** With `CCCOCCC` [dipropyl ether] as the compound, how does the mass density [2] read?
**A.** 741.81 ± 13 kg/m3

**Q.** And the refractive index [1]?
**A.** 1.3784 ± 0.0045

**Q.** For `CCCO` [propan-1-ol], which mass density [2] is on record?
**A.** 799.62 ± 0.14 kg/m3

**Q.** What about the refractive index [1] of the same compound?
**A.** 1.3836 ± 0.004

**Q.** With `O` [water] as the compound, how does the refractive index [1] read?
**A.** 1.3325 ± 0.004
